From US7135466B2 (Kirin Beer Kabushiki Kaisha, priority 1999, dated 2006)
Where two headings read alike, the source gives them in different places.

Key:
c-kit = target: T1, c-kit (Homo sapiens, UniProt P10721); test: Inhibitory activity against c-kit autophosphorylation (MO7e cells, h-SCF); format: cell-based; details: for IC50: MO7e cells, read-out: c-kit IC50; for inhibition at 1 µM: Mo7e, at 1000 nM
T1 construct: MO7e (human megakaryocytic leukemia cell line) which had been arrested for 20 hr; endogenous in cells; host or cells: MO7e human megakaryocytic leukemia cell line
Procedure, shortened: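 Ligand-induced c-kit tyrosine phosphorylation is measured in MO7e cells that were quiesced 20 hr and preincubated with compound for 1 hr prior to a 5 min pulse of 50 ng/ml human SCF. Phospho-c-kit is detected by anti-phosphotyrosine capture ELISA, A450.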

PDGF-Ra = target: T2, PDGF-Ra (Homo sapiens, UniProt P16234); test: Inhibitory activity against PDGF-Ra phosphorylation by PDGF-AA stimulation using G292; format: cell-based; details: for IC50: > means inhibition at indicated concentration not more than 50%, < and << not less than 50%, read-out: PDGF (E) IC50; for inhibition at 0.1 µM: G292, at 100 nM, read-out: PDGF (E) inhibition (%) at 100 nM
T2 construct: host or cells: G-292 human osteosarcoma cells
Procedure, shortened: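 Read-out: A450 from a sandwich ELISA (PY-20 capture, anti-PDGF-Ra detection, peroxidase colour) of lysates from G-292 cells given compound for 1 hr at 37 °C before a 5 min challenge with PDGF-AA at 50 ng/ml.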

[1] = figure within parentheses in −( ) or >1000( )
[2] = figure within parentheses in >100( )

T2 sequence (P16234 24-1089): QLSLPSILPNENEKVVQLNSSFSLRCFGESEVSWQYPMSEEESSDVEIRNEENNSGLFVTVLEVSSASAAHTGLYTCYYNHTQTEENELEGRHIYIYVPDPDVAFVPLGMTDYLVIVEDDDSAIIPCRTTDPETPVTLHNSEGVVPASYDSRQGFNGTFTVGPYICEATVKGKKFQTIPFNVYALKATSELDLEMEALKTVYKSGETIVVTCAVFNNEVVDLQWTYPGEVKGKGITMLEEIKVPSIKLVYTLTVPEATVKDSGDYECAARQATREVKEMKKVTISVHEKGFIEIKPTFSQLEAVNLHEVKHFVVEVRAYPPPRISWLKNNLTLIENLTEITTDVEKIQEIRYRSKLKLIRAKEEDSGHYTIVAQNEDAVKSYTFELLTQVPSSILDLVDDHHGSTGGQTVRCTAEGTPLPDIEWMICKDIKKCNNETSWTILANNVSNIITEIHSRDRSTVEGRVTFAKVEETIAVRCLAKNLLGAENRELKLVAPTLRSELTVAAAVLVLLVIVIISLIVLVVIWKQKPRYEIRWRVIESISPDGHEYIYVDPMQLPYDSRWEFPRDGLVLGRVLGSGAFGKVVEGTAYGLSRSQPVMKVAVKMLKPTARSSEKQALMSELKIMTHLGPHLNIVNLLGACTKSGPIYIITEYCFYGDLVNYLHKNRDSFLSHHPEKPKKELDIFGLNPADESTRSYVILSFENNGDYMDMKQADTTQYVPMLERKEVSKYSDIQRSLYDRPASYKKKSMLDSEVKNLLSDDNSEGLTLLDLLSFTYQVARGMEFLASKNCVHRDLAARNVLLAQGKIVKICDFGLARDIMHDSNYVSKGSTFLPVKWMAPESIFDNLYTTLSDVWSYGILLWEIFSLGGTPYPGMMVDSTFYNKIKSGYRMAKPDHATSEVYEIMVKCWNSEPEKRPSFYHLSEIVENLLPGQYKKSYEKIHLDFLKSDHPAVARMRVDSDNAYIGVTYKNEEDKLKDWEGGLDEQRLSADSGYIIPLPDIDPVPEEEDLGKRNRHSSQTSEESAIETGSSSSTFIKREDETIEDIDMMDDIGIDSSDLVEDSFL
T1 sequence (P10721 26-976): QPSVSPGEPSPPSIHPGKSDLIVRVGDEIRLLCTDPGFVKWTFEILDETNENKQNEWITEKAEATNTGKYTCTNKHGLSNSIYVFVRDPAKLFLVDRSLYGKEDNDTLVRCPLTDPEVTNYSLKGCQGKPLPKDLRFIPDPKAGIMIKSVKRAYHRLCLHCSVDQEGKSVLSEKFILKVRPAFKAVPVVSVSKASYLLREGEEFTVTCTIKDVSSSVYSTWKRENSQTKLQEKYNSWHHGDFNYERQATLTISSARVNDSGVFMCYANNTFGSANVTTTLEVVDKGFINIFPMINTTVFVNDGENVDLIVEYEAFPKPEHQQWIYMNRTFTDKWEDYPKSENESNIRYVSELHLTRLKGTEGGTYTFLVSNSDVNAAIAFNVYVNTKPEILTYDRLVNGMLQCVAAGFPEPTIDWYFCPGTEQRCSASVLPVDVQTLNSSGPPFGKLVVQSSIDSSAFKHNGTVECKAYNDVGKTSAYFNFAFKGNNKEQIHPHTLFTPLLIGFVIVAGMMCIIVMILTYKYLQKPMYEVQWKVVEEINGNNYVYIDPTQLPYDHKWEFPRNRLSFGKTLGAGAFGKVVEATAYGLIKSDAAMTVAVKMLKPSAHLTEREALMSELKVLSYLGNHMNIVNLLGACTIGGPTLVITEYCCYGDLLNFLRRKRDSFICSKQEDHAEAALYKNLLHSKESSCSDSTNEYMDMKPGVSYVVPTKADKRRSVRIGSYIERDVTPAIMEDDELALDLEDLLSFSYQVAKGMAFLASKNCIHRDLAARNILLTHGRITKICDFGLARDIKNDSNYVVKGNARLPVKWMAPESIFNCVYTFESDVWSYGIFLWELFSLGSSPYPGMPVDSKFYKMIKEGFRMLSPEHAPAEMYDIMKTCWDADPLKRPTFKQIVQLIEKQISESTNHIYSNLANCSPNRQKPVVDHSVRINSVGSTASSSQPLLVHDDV

| SMILES | IC50 (c-kit; 50 ng/ml h-SCF) | IC50 (PDGF-Ra) | IC50 (c-kit; h-SCF 50 ng/ml) | IC50 (PDGF-Ra; Pharmacological Test Example 1) | other results |
| --- | --- | --- | --- | --- | --- |
| COc1cc2ncnc(Oc3ccc(NC(=O)OC4CCCCCC4)c([N+](=O)[O-])c3)c2cc1OC [Example 507, Cycloheptyl N-{4-[(6,7-dimethoxy-4-quinazolinyl)oxy]-2-nitrophenyl}carbamate] | 787 nM | 44 nM | – | – | – |
| COc1cc2nccc(Oc3ccc(NC(=S)NC(=O)N4CCOCC4)cc3Cl)c2cc1OC [Example 1052, N-{3-Chloro-4-[(6,7-dimethoxy-4-quinolyl)oxy]phenyl}-N′-morpholinocarbonylthiourea] | – | 21 nM | – | – | IC50 (c-kit; h-SCF stimulation): 408 nM |
| COc1cc2ncnc(Oc3ccc(NC(=O)OC(C)c4cccc(Cl)c4)cc3)c2cc1OC (stereo not drawn) [Example 6, 1-(3-Chlorophenyl)ethyl N-{4-[(6,7-dimethoxy-4-quinazolinyl)oxy]phenyl}carbamate] | – | – | 175 nM | < 10 nM | – |
| CCC(CC)OC(=O)Nc1ccc(Oc2ncnc3cc(OC)c(OC)cc23)cc1Cl [Example 362, 1-Ethylpropyl N-{2-chloro-4-[(6,7-dimethoxy-4-quinazolinyl)oxy]phenyl}carbamate] | – | – | – | 42 nM | inhibition at 1 µM (c-kit; figure in parentheses in −( )): 26% |
| CCN(CCNC(=O)Nc1ccc(Oc2ccnc3cc(OC)c(OC)cc23)cc1OC)c1cccc(C)c1 [Example 670, N-{4-[(6,7-Dimethoxy-4-quinolyl)oxy]-2-methoxyphenyl}-N′-[2-(ethyl-3-methylanilino)ethyl]urea] | 82 nM | 15 nM | – | – | – |
| COc1cc(Oc2ncnc3cc(OC)c(OC)cc23)ccc1NC(=O)NCCCN1CCN(C)CC1 [Example 633, N-{4-[(6,7-Dimethoxy-4-quinazolinyl)oxy]-2-methoxyphenyl}-N′-[3-(4-methylpiperazino)-propyl]urea] | – | 58 nM | – | – | inhibition at 1 µM (c-kit; [1]): 28% |
| COc1cc2nccc(Oc3cc(C)c(NC(=O)OCc4ccccn4)cc3C)c2cc1OC [Example 430, 2-Pyridylmethyl N-{4-[(6,7-dimethoxy-4-quinolyl)oxy]-2,5-dimethylphenyl}carbamate] | 182 nM | 76 nM | – | – | – |
| CCCCC(CCCC)OC(=O)Nc1ccc(Oc2ncnc3cc(OC)c(OC)cc23)cc1 [Example 371, 1-Butylpentyl N-{4-[(6,7-dimethoxy-4-quinazolinyl)oxy]phenyl}carbamate] | – | – | 541 nM | < 10 nM | – |
| COc1ccc(C(C)OC(=O)Nc2ccc(Oc3ccnc4cc(OC)c(OC)cc34)cc2)cc1 (stereo not drawn) [Example 32, 1-(4-Methoxyphenyl)ethyl N-{4-[(6,7-dimethoxy-4-quinolyl)oxy]phenyl}carbamate] | – | – | 227 nM | 16 nM | – |
| COc1cc2ncnc(Oc3ccc(NC(=S)NC(=O)Cc4ccccc4Cl)cc3)c2cc1OC [Example 724, N-[2-(2-Chlorophenyl)acetyl]-N′-{4-[(6,7-dimethoxy-4-quinazolinyl)oxy]phenyl}thiourea] | 116 nM | < 10 nM | – | – | – |
| COc1cc2ncnc(Oc3ccc(OCCCn4ccc5ccccc54)cc3)c2cc1OC [Example 811, 4-{4-[3-(1H-1-Indolyl)propoxy]phenoxy}-6,7-dimethoxyquinazoline] | – | 17 nM | – | – | inhibition at 1 µM (c-kit; figure in parentheses in −( )): 20% |
| COc1cc2ncnc(Oc3ccc(NC(=S)NC(=O)c4ccc(C)nc4)cc3)c2cc1OC [Example 1154, N-{4-[(6,7-Dimethoxy-4-quinazolinyl)oxy]phenyl}-N′-[(6-methyl-3-pyridyl)carbonyl]thiourea] | – | 49 nM | – | – | inhibition at 1 µM (c-kit; figure in parentheses in −( )): 21% |
| COc1ccc(COC(=O)Nc2ccc(Oc3ncnc4cc(OC)c(OC)cc34)cc2Cl)cc1OC [Example 66, 3,4-Dimethoxybenzyl N-{2-chloro-4-[(6,7-dimethoxy-4-quinazolinyl)oxy]phenyl}carbamate] | – | – | 353 nM | 50 nM | – |
| COc1cc2nccc(Oc3ccc(NC(=O)NCCN4CCOCC4)cc3)c2cc1OC [Example 628, N-{4-[(6,7-Dimethoxy-4-quinolyl)oxy]phenyl}-N′-(2-morpholinoethyl)urea] | 81 nM | < 10 nM | – | – | – |
| CCN(CC)CCNC(=S)Nc1ccc(Oc2ccnc3cc(OC)c(OC)cc23)c(C)c1C [Example 511, N-{4-[(6,7-Dimethoxy-4-quinolyl)oxy]-2,3-dimethylphenyl}-N′-(2-diethylaminoethyl)thiourea] | 663 nM | 19 nM | – | – | – |
| COc1cc2nccc(Oc3ccc(NC(=O)OCc4cccc(C)c4)cc3)c2cc1OC [Example 251, 3-Methylbenzyl N-{4-[(6,7-dimethoxy-4-quinolyl)oxy]phenyl}carbamate] | – | – | 185 nM | 6 nM | – |

| SMILES | IC50 (c-kit; 50 ng/ml h-SCF) | IC50 (PDGF-Ra) | IC50 (c-kit; h-SCF 50 ng/ml) | IC50 (PDGF-Ra; Pharmacological Test Example 1) | other results |
| --- | --- | --- | --- | --- | --- |
| COc1cc2nccc(Oc3cc(C)c(NC(=O)NC4CCN(Cc5ccccc5)CC4)cc3C)c2cc1OC [Example 634, N-(1-Benzyl-4-piperidyl)-N′-{4-[(6,7-dimethoxy-4-quinolyl)oxy]-2,5-dimethylphenyl}urea] | – | > 100 nM | – | – | inhibition at 1 µM (c-kit; [1]): 13%; inhibition at 0.1 µM (PDGF-Ra; [2]): 40% |
| CCCCc1ccc(C(=O)NC(=S)Nc2ccc(Oc3ccnc4cc(OC)c(OC)cc34)c(F)c2)cc1 [Example 999, N-(4-Butylbenzoyl)-N′-{4-[(6,7-dimethoxy-4-quinolyl)oxy]-3-fluorophenyl}thiourea] | – | 29 nM | – | – | inhibition at 1 µM (c-kit; figure in parentheses in −( )): 45% |
| COc1cc2ncnc(Oc3ccc(NC(=O)OCCOc4ccccc4F)cc3)c2cc1OC [Example 206, 2-(2-Fluorophenoxy)ethyl N-{4-[(6,7-dimethoxy-4-quinazolinyl)oxy]phenyl}carbamate] | – | – | 80 nM | 13 nM | – |
| COc1cc2nccc(Oc3cc(C)c(NC(=O)OC(C)c4ccc(C)cc4)cc3C)c2cc1OC (stereo not drawn) [Example 134, 1-(4-Methylphenyl)ethyl N-{4-[(6,7-dimethoxy-4-quinolyl)oxy]-2,5-dimethylphenyl}carbamate] | – | – | 944 nM | > 100 nM | inhibition at 0.1 µM (PDGF-Ra; figure in parentheses in >100( )): 49% |
| COc1cc2ncnc(Oc3ccc(NC(=O)OCc4ccncc4)cc3)c2cc1OC [Example 434, 4-Pyridylmethyl N-{4-[(6,7-dimethoxy-4-quinazolinyl)oxy]phenyl}carbamate] | < 30 nM | 20 nM | – | – | – |
| COc1cc2ncnc(Oc3ccc(NC(=O)N4CCN(c5ccccc5)CC4)cc3)c2cc1OC [Example 691, N1-{4-[(6,7-Dimethoxy-4-quinazolinyl)oxy]phenyl}-4-phenyl-1-piperazinecarboxamide] | – | > 100 nM | – | – | inhibition at 1 µM (c-kit; [1]): 18%; inhibition at 0.1 µM (PDGF-Ra; [2]): 10% |
| COc1cc2ncnc(Oc3ccc(NC(=O)OC4CCN(C)CC4)cc3)c2cc1OC [Example 469, 1-Methyl-4-piperidyl N-{4-[(6,7-dimethoxy-4-quinazolinyl)oxy]phenyl}carbamate] | – | > 100 nM | – | – | inhibition at 1 µM (c-kit; [1]): 28%; inhibition at 0.1 µM (PDGF-Ra; [2]): 0% |
| COc1cc2ncnc(Oc3ccc(NC(=O)OCc4ccccc4Cl)cc3)c2cc1OC [Example 317, 2-Chlorobenzyl N-{4-[(6,7-dimethoxy-4-quinazolinyl)oxy]phenyl}carbamate] | – | – | 136 nM | < 10 nM | – |
| CCN(CCNC(=S)Nc1ccc(Oc2ccnc3cc(OC)c(OC)cc23)c(C)c1C)c1ccccc1C [Example 544, N-{4-[(6,7-Dimethoxy-4-quinolyl)oxy]-2,3-dimethylphenyl}-N′-{2-[N-ethyl-N-(o-tolyl)amino]-ethyl}thiourea] | 216 nM | < 10 nM | – | – | – |
| CCCC(CCN1CCCCC1)OC(=O)Nc1ccc(Oc2ccnc3cc(OC)c(OC)cc23)c(C)c1C (stereo not drawn) [Example 447] | 553 nM | > 100 nM | – | – | inhibition at 0.1 µM (PDGF-Ra; [2]): 11% |
| COc1cc2ncnc(Oc3ccc(NC(=O)OC(C)c4cccc(OC(F)(F)F)c4)cc3)c2cc1OC (stereo not drawn) [Example 183, 1-[3-(Trifluoromethoxy)phenyl]ethyl N-{4-[(6,7-dimethoxy-4-quinazolinyl)oxy]phenyl}carbamate] | – | – | 706 nM | 35 nM | – |
| COc1cc2nccc(Oc3ccc(NC(=O)OC(C)c4ccccc4Cl)cc3)c2cc1OC (stereo not drawn) [Example 13, 1-(2-Chlorophenyl)ethyl N-{4-[(6,7-dimethoxy-4-quinolyl)oxy]phenyl}carbamate] | – | – | 135 nM | < 10 nM | – |
| COc1cc2nccc(Oc3ccc(NC(=O)NC4CCN(Cc5ccccc5Cl)C4)cc3)c2cc1OC (stereo not drawn) [Example 579, N-[1-(2-Chlorobenzyl)tetrahydro-1H-3-pyrrolyl]-N′-{4-[(6,7-dimethoxy-4-quinolyl)oxy]phenyl}urea] | 145 nM | 22 nM | – | – | – |
| COc1cc2nccc(Oc3ccc(NC(=O)Oc4c(C)cccc4C)c(C)c3C)c2cc1OC [Example 271, 2,6-Dimethylphenyl N-(4-[(6,7-dimethoxy-4-quinolyl)oxy]-2,3-dimethylphenyl}carbamate] | – | – | 130 nM | 22 nM | – |
| COc1cc2nccc(Oc3cc(C)c(NC(=O)OC(C)c4cccc(F)c4)cc3C)c2cc1OC (stereo not drawn) [Example 99, 1-(3-Fluorophenyl)ethyl N-{4-[(6,7-dimethoxy-4-quinolyl)oxy]-2,5-dimethylphenyl}carbamate] | – | – | 394 nM | 21 nM | – |
| COc1cc2nccc(Oc3ccc(NC(=O)OCCCSc4ccc(C)cc4)c(C)c3C)c2cc1OC [Example 38] | – | – | 33 nM | < 10 nM | – |
